The target of the experiment is human TPH1 (Homo sapiens (Human), UniProt P17752). Kind of experiment: Biochemical in vitro assay using fluorescence readout (TPH1 inhibition).
Setting [1] is: human TPH1, fluorescence readout.
Where [2] appears, read: full length human TPH1, 40 μM L-tryptophan, 15° C., 60 minutes, fluorescence at 540 nm, mean if determined several times.

human TPH1, sequence (P17752 whole entry): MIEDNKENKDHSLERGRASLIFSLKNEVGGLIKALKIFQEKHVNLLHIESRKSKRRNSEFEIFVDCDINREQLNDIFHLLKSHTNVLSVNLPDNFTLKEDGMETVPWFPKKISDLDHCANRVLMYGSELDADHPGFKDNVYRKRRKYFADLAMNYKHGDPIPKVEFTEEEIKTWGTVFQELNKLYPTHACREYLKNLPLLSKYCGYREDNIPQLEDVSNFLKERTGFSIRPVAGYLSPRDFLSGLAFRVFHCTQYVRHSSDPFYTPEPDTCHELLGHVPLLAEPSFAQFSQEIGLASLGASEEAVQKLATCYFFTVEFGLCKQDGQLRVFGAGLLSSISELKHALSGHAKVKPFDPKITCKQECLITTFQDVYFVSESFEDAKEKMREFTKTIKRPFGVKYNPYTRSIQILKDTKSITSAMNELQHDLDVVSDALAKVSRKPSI

The IC50 is the concentration that inhibits the measured activity by half. The low end stands for greater potency, the high end for weaker potency. In turn, `Cc1cnc(C2c3c(nc4sc(C)nn34)CCN2C(=O)COc2ccc(C#N)nc2Cl)c(F)c1` (stereo not shown) [Example 1.31.3, 6-chloro-5-(2-(5-(3-fluoro-5-methylpyridin-2-yl)-2-methyl-7,8-dihydro-[1,3,4]thiadiazolo[2′,3′:2,3]imidazo[4,5-c]pyridin-6(5H)-yl)-2-oxoethoxy)picolinonitrile] gave an IC50 under setting [1] of 36 nM. In the case of `CNC(=O)c1ccc(C2c3c(nc4sc(C)nn34)CCN2C(=O)COc2ccc(C(=O)N(C)C)nc2Cl)o1` (stereo not shown) [Example 1.42.1, 6-chloro-N,N-dimethyl-5-(2-(2-methyl-5-(5-(methylcarbamoyl)furan-2-yl)-7,8-dihydro-[1,3,4]thiadiazolo[2′,3′:2,3]imidazo[4,5-c]pyridin-6(5H)-yl)-2-oxoethoxy)picolinamide], 49 nM corresponded to half-maximal inhibition under setting [1] (IC50). For the compound `Cc1nn2c3c(nc2s1)CCN(C(=O)COc1ccc(NS(C)(=O)=O)nc1Cl)C3c1ncc(C(=O)N(C)C)s1` (stereo not shown) [Example 1.37.3, 2-(6-(2-((2-Chloro-6-(methylsulfonamido)pyridin-3-yl)oxy)acetyl)-2-methyl-5,6,7,8-tetrahydro-[1,3,4]thiadiazolo[2′,3′:2,3]imidazo[4,5-c]pyridin-5-yl)-N,N-dimethylthiazole-5-carboxamide], 40 nM corresponded to half-maximal inhibition under setting [2] (IC50). Under setting [2], `Cc1nn2c3c(nc2s1)CCN(C(=O)COc1ccc(C(=O)N(C)C)nc1Cl)C3c1ccc(C(=O)N(C)C)o1` (stereo not shown) [Example 1.40.1, 6-Chloro-5-(2-(5-(5-(dimethylcarbamoyl)furan-2-yl)-2-methyl-7,8-dihydro[1,3,4]thiadiazolo[2′,3′:2,4]imidazo[4,5-c]pyridin-6(5H)-yl)-2-oxoethoxy)-N,N-dimethylpicolinamide] registered an IC50 of 90 nM. Under setting [1], `Cc1nn2c3c(nc2s1)CCN(C(=O)COc1ccc(C(N)=O)nc1Cl)C3c1ccc(Cl)cc1F` (stereo not shown) [Example 1.4.19, 6-chloro-5-(2-(5-(4-chloro-2-fluorophenyl)-2-methyl-7,8-dihydro-[1,3,4]thiadiazolo[2′,3′:2,3]imidazo[4,5-c]pyridin-6(5H)-yl)-2-oxoethoxy)picolinamide] had an IC50 of 5 nM. On the same count and under the same terms, with `COc1ccc(C2c3c(nc4sc(C)nn34)CCN2C(=O)COc2ccc(C(=O)NC3CC3)nc2Cl)c(F)c1` (stereo not shown) [Example 1.3.3, 6-chloro-N-cyclopropyl-5-(2-(5-(2-fluoro-4-methoxyphenyl)-2-methyl-7,8-dihydro-[1,3,4]thiadiazolo[2′,3′:2,3]imidazo[4,5-c]pyridin-6(5H)-yl)-2-oxoethoxy)picolinamide] the figure was 10 nM. Regarding `COc1ccc2c(OCC(=O)N3CCc4nc5sc(C)nn5c4C3c3ccc(Cl)cc3F)cc(C)nc2c1` (stereo not shown) [Example 1.4.63, 1-(5-(4-chloro-2-fluorophenyl)-2-methyl-7,8-dihydro-[1,3,4]thiadiazolo[2′,3′:2,3]imidazo[4,5-c]pyridin-6(5H)-yl)-2-((7-methoxy-2-methylquinolin-4-yl)oxy)ethan-1-one], the concentration for half-maximal inhibition (IC50) under setting [1] came out at 65 nM.

The compound `Cc1cnc(C2c3c(nc4sc(C)nn34)CCN2C(=O)COc2ccc(NS(C)(=O)=O)cc2Cl)c(F)c1` (stereo not shown) [Example 1.31.10, N-(3-chloro-4-(2-(5-(3-fluoro-5-methylpyridin-2-yl)-2-methyl-7,8-dihydro-[1,3,4]thiadiazolo[2′,3′:2,3]imidazo[4,5-c]pyridin-6(5H)-yl)-2-oxoethoxy)phenyl)methanesulfonamide] returned a 50% inhibitory concentration (IC50) under setting [1] of 11 nM.

Compound `CCc1ncccc1OCC(=O)N1CCc2nc3sccn3c2C1c1cnn(-c2ccccc2)c1` (stereo not shown) [Example 6.13.9, 2-((2-ethylpyridin-3-yl)oxy)-1-(5-(1-phenyl-1H-pyrazol-4-yl)-7,8-dihydrothiazolo[2′,3′:2,3]imidazo[4,5-c]pyridin-6(5H)-yl)ethanone] registered an IC50 under setting [1] of 123 nM.

Consider `Cc1nn2c3c(nc2s1)CCN(C(=O)COc1ccc(NS(C)(=O)=O)nc1Cl)C3c1ccc(C)c(F)c1F` (stereo not shown) [Example 1.61.2, N-(6-chloro-5-(2-(5-(2,3-difluoro-4-methylphenyl)-2-methyl-7,8-dihydro-[1,3,4]thiadiazolo[2′,3′:2,3]imidazo-[4,5-c]pyridin-6(5H)-yl)-2-oxoethoxy)pyridin-2-yl)methanesulfonamide], for which the half-maximal inhibitory concentration (IC50) under setting [1] came to 34 nM. Still for that read-out and setting: for `Cc1nn2c3c(nc2s1)CCN(C(=O)COc1ccc(C#N)nc1Cl)C3c1ncc(C2CC2)cc1F` (stereo not shown) [Example 1.14.4, 6-chloro-5-(2-(5-(5-cyclopropyl-3-fluoropyridin-2-yl)-2-methyl-7,8-dihydro-[1,3,4]thiadiazolo[2′,3′:2,3]imidazo[4,5-c]pyridin-6(5H)-yl)-2-oxoethoxy)picolinonitrile] the value was 17 nM; for `Cc1cnc(C2c3c(nc4sc(C)nn34)CCN2C(=O)COc2ccc(NS(=O)(=O)C3CC3)nc2Cl)c(F)c1` (stereo not shown) [Example 1.31.9, N-(6-chloro-5-(2-(5-(3-fluoro-5-methylpyridin-2-yl)-2-methyl-7,8-dihydro-[1,3,4]thiadiazolo[2′,3′:2,3]imidazo[4,5-c]pyridin-6(5H)-yl)-2-oxoethoxy)pyridin-2-yl)cyclopropanesulfonamide], 21 nM. The compound `CCc1cc(Cl)ccc1OCC(=O)N1CCc2nc3sccn3c2C1c1c(C)noc1C` (stereo not shown) [Example 6.5.5, 2-(4-chloro-2-ethylphenoxy)-1-(5-(3,5-dimethylisoxazol-4-yl)-7,8-dihydrothiazolo[2′,3′:2,3]imidazo[4,5-c]pyridin-6(5H)-yl)ethanone] showed an IC50 under setting [1] of 135 nM. The compound `Cc1nn2c3c(nc2s1)CCN(C(=O)COc1ccc(C(=O)NCC#N)nc1Cl)C3c1ccc(Cl)cc1F` (stereo not shown) [Example 1.4.23, 6-Chloro-5-(2-(5-(4-chloro-2-fluorophenyl)-2-methyl-7,8-dihydro-[1,3,4]thiadiazolo[2′,3′:2,3]imidazo[4,5-c]pyridin-6(5H)-yl)-2-oxoethoxy)-N-(cyano-methyl)picolinamide] yielded an IC50 under setting [2] of 247 nM.

`Cc1nn2c3c(nc2s1)CCN(C(=O)COc1ccc(NS(C)(=O)=O)nc1Cl)C3c1ccc(OCCO)cc1F` (stereo not shown) [Example 1.84.2, N-(6-Chloro-5-(2-(5-(2-fluoro-4-(2-hydroxyethoxy)phenyl)-2-methyl-7,8-dihydro-[1,3,4]thiadiazolo[2′,3′:2,3]imidazo[4,5-c]pyridin-6(5H)-yl)-2-oxoethoxy)pyridin-2-yl)methanesulfonamide] returned an IC50 under setting [2] of 16 nM. Turning to `Cc1nn2c3c(nc2s1)CCN(C(=O)COc1ccc(N2CCOCC2)nc1Cl)C3c1cnc(OC(F)F)cc1C` (stereo not shown) [Example 1.15.2, 2-((2-chloro-6-morpholinopyridin-3-yl)oxy)-1-(5-(6-(difluoromethoxy)-4-methylpyridin-3-yl)-2-methyl-7,8-dihydro-[1,3,4]thiadiazolo[2′,3′:2,3]imidazo[4,5-c]pyridin-6(5H)-yl)ethanone], 7 nM corresponded to half-maximal inhibition under setting [1] (IC50). The compound `O=C(COc1ccc(CN2CCOCC2)nc1Cl)N1CCc2nc3sccn3c2C1c1ccc(Cl)cc1F` (stereo not shown) [Example 6.4.5, 1-(5-(4-chloro-2-fluorophenyl)-7,8-dihydrothiazolo-[2′,3′:2,3]imidazo[4,5-c]pyridin-6(5H)-yl)-2-((2-chloro-6-(morpholinomethyl)pyridin-3-yl)oxy)ethanone] came in with an IC50 under setting [1] of 7 nM.

Take `CCNC(=O)Nc1nc(C2c3c(nc4sc(C)nn34)CCN2C(=O)COc2ccc(N3CCOCC3)nc2Cl)cs1` (stereo not shown) [Example 1.47.1, 1-(4-(6-(2-((2-chloro-6-morpholinopyridin-3-yl)oxy)acetyl)-2-methyl-5,6,7,8-tetrahydro-[1,3,4]thiadiazolo[2′,3′:2,3]imidazo[4,5-c]pyridin-5-yl)thiazol-2-yl)-3-ethylurea]: the midpoint of inhibition under setting [1], the IC50, lay at 18 nM. Same read-out and setting: for `Cc1nn2c3c(nc2s1)CCN(C(=O)COc1ccc(C(F)(F)F)cc1Cl)C3c1sccc1F` (stereo not shown) [Example 1.23.5, 2-(2-chloro-4-(trifluoromethyl)phenoxy)-1-(5-(3-fluorothiophen-2-yl)-2-methyl-7,8-dihydro-[1,3,4]thiadiazolo[2′,3′:2,3]imidazo[4,5-c]pyridin-6(5H)-yl)ethanone] the value was 9 nM; for `Cc1nn2c3c(nc2s1)CCN(C(=O)COc1ccc(-c2ncco2)nc1Cl)[C@H]3c1sccc1F` [Example 1.23.15, (R)-2-((2-chloro-6-(oxazol-2-yl)pyridin-3-yl)oxy)-1-(5-(3-fluorothiophen-2-yl)-2-methyl-7,8-dihydro-[1,3,4]thiadiazolo[2′,3′:2,3]imidazo[4,5-c]pyridin-6(5H)-yl)ethanone], 20 nM; for `Cc1nn2c3c(nc2s1)CCN(C(=O)COc1ccc(C(=O)N(C)C)nc1Cl)C3c1ccc(Cl)cc1F` (stereo not shown) [Example 1.4.42, 6-chloro-5-(2-(5-(4-chloro-2-fluorophenyl)-2-methyl-7,8-dihydro-[1,3,4]thiadiazolo[2′,3′:2,3]imidazo[4,5-c]pyridin-6(5H)-yl)-2-oxoethoxy)-N,N-dimethylpicolinamide], 18 nM. In turn, `Cc1ccc(Cl)c(OCC(=O)N2CCc3nc4sccn4c3C2c2cc3cccnc3s2)c1` (stereo not shown) [Example 6.14.5, 2-(2-chloro-5-methylphenoxy)-1-(5-(thieno[2,3-b]-pyridin-2-yl)-7,8-dihydrothiazolo[2′,3′:2,3]imidazo[4,5-c]pyridin-6(5H)-yl)ethanone] yielded an IC50 under setting [1] of 43 nM. Still for that read-out and setting: with `COC1(c2csc(C3c4c(nc5sc(C)nn45)CCN3C(=O)COc3ccc(N4CCOCC4)nc3Cl)c2)COC1` (stereo not shown) [Example 1.50.1, 2-((2-chloro-6-morpholinopyridin-3-yl)oxy)-1-(5-(4-(3-methoxyoxetan-3-yl)thiophen-2-yl)-2-methyl-7,8-dihydro-[1,3,4]thiadiazolo[2′,3′:2,3]imidazo[4,5-c]pyridin-6(5H)-yl)ethanone] the figure was 6 nM; with `Cc1cnc(C2c3c(nc4sc(C)nn34)CCN2C(=O)COc2ccc(N3CCOCC3)nc2Cl)c(F)c1` (stereo not shown) [Example 1.31.2, 2-((2-chloro-6-morpholinopyridin-3-yl)oxy)-1-(5-(3-fluoro-5-methylpyridin-2-yl)-2-methyl-7,8-dihydro-[1,3,4]thiadiazolo [2′,3′:2,3]imidazo[4,5-c]pyridin-6(5H)-yl)ethanone], 5 nM. In turn, `Cc1nn2c3c(nc2s1)CCN(C(=O)COc1ccc(C#N)nc1Cl)C3c1ccc(Cl)cc1F` (stereo not shown) [Example 1.4.9, 6-chloro-5-(2-(5-(4-chloro-2-fluorophenyl)-2-methyl-7,8-dihydro-[1,3,4]thiadiazolo[2′,3′:2,3]imidazo[4,5-c]pyridin-6(5H)-yl)-2-oxoethoxy)picolinonitrile] came in with an IC50 under setting [1] of 36 nM.

The record behind these values is patent publication US9765092B2, “Tricyclic piperidine compounds” (ACTELION PHARMACEUTICALS LTD, priority 2013, dated 2017).
